biological target: T1, rat NaP2b (SLC34A2) (Rattus norvegicus, UniProt Q9JJ09); experiment: Inhibition of NaP2b-mediated Pi (33P) uptake in transfected HEK293 cells, rat NaP2b; type: cell-based; settings: 33P Pi uptake, 0.1 mM phosphate, value given as pIC50 range
T1 construct: host or cells: HEK293
T1 sequence (Q9JJ09 1-695): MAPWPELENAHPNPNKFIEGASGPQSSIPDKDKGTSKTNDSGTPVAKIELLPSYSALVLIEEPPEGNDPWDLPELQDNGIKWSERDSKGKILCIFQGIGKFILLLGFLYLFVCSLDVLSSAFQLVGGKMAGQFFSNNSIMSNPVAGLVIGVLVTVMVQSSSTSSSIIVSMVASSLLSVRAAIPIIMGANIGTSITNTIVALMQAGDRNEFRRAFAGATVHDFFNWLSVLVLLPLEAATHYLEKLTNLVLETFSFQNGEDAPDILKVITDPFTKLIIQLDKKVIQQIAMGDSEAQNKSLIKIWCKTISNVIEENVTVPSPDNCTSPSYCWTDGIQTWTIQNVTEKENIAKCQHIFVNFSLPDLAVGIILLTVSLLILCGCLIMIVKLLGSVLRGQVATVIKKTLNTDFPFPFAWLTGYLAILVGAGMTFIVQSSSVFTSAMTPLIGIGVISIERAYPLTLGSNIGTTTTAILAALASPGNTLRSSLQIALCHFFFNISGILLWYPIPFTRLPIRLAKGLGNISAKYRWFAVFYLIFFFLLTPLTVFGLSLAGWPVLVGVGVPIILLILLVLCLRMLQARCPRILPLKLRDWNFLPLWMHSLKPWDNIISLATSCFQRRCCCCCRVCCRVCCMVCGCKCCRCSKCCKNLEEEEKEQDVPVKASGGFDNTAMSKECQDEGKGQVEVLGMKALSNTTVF
Outline: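 HEK293 cells were transiently transfected with NaP2b cDNA using Lipofectamine and grown near confluence. Compounds were tested at twelve concentrations from 0.1 nM to 30 uM in duplicate, and 33P-phosphate uptake was counted by scintillation after lysis. Results are expressed as pIC50.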

| SMILES | IC50 [µM] | pIC50 range for rat Nap2b |
| --- | --- | --- |
| CCCN(C)c1ccc(NC(=O)c2cccc(C(=O)N(C)CCN3CCOCC3)c2)c(-c2cc(C(=O)NCc3cccc(C(F)(F)F)c3)ccn2)c1 [Example 129, N^1-methyl-N^3-(4-(methyl(propyl)amino)-2-(4-((3-(trifluoromethyl)benzyl)carbamoyl)pyridin-2-yl)phenyl)-N-(2-morpholinoethyl)isophthalamide] | 1 to 7.94 | – |
| CC(=O)N1CCN(C(=O)c2cccc(C(=O)Nc3ccc(N4CCCCC4)cc3-c3cc(C(=O)NCc4cccc(C(F)(F)F)c4)ccn3)c2)CC1 [Example 4.6, 2-(2-(3-(4-Acetylpiperazine-1-carbonyl)benzamido)-5-(piperidin-1-yl)phenyl)-N-(3-(trifluoromethyl)benzyl)isonicotinamide] | 10 to 31.6 | – |
| Cc1ccc(Cl)cc1CNC(=O)c1ccnc(-c2cc(N3CCCCC3)ccc2NC(=O)c2cccc(CSCCC(=O)O)c2)c1 [Example 1.17] | 1 to 7.94 | – |
| CCN(CC)c1ccc(NC(=O)c2cccc(C(=O)N(C)CCN(C)CCOCCOCCOCCNC(=O)C(C)(C)C)c2)c(-c2cc(C(=O)NCc3cccc(C(F)(F)F)c3)ccn2)c1 [Example 346, N2-(4-(diethylamino)-2-(4-(3-(trifluoromethyl)benzylcarbamoyl)pyridin-2-yl)phenyl)-N^3-methyl-N^3-(3,17,17-trimethyl-16-oxo-6,9,12-trioxa-3,15-diazaoctadecyl)isophthalamide] | – | 5.1-6.0 |
| O=C(O)CCSCc1cccc(C(=O)Nc2ccc(N3CCCCC3)cc2-c2cc(C(=O)NCc3ccc(C(F)(F)F)cc3)ccn2)c1 [Example 1.47] | 1 to 7.94 | – |
| CN(CCN1CCOCC1)C(=O)c1cccc(C(=O)Nc2ccc(N3CCCCC3)cc2-c2cc(SCc3ccccc3)ccn2)c1 [Example 109] | 1 to 7.94 | – |
| CN1CCN(CCN(C)C(=O)c2cccc(C(=O)Nc3ccc(N4CCCCC4)cc3-c3cc(C(=O)NCc4cccc(C(F)(F)F)c4)ccn3)c2)CC1 [Example 82, N1-Methyl-N1-(2-(4-methylpiperazin-1-yl)ethyl)-N3-(4-(piperidin-1-yl)-2-(4-((3-(trifluoromethyl)benzyl)carbamoyl)pyridin-2-yl)phenyl)isophthalamide] | 1 to 7.94 | – |
| COCCNC(=O)[C@H]1CCCN(C(=O)c2cccc(C(=O)Nc3ccc(N4CCCCC4)cc3-c3cc(C(=O)NCc4cccc(C(F)(F)F)c4)ccn3)c2)C1 [Example 4.14, (S)-2-(2-(3-(3-((2-Methoxyethyl)carbamoyl)piperidine-1-carbonyl)benzamido)-5-(piperidin-1-yl)phenyl)-N-(3-(trifluoromethyl)benzyl)isonicotinamide] | 1 to 7.94 | – |
| CN(CCOCCOCCOCCC(=O)O)Cc1cccc(C(=O)Nc2ccc(N3CCCCC3)cc2-c2cc(C(=O)NCc3cccc(C(F)(F)F)c3)ccn2)n1 [Example 54, 2-Methyl-1-(6-((4-(piperidin-1-yl)-2-(4-((3-(trifluoromethyl)benzyl)carbamoyl)pyridin-2-yl)phenyl)carbamoyl)pyridin-2-yl)-5,8,11-trioxa-2-azatetradecan-14-oic acid] | 10 to 31.6 | – |
| O=C(O)Cc1cccc(SCc2cccc(C(=O)Nc3ccc(Cl)cc3-c3cc(C(=O)NCc4cccc(C(F)(F)F)c4)ccn3)c2)c1 [Example 119] | < 1 | – |
| O=C(O)CCSCc1cccc(C(=O)Nc2ccc(N3CCCCC3)cc2-c2cc(CNCc3cccc(C(F)(F)F)c3)ccn2)c1 [Example 7] | 10 to 31.6 | – |
| CN(Cc1cccnc1)C(=O)c1cccc(C(=O)Nc2ccc(N3CCCCC3)cc2-c2cc(C(=O)NCc3cccc(C(F)(F)F)c3)ccn2)c1 [Example 4.27] | 1 to 7.94 | – |
| COc1ccccc1CNC(=O)c1ccnc(-c2cc(N3CCCCC3)ccc2NC(=O)c2cccc(C(=O)N(C)CCN3CCOCC3)c2)c1 [Example 124, N1-(2-(4-((2-methoxybenzyl)carbamoyl)pyridin-2-yl)-4-(piperidin-1-yl)phenyl)-N3-methyl-N3-(2-morpholinoethyl)isophthalamide] | 1 to 7.94 | – |
| O=C(O)CCSCc1cccc(C(=O)Nc2ccc(N3CCCCC3)cc2-c2cc(C(=O)NCc3ccc4c(c3)OCO4)ccn2)c1 [Example 1.23] | 1 to 7.94 | – |
| O=C(O)CCSCc1cccc(C(=O)Nc2ccc(N3CCCCC3)cc2-c2cc(C(F)(F)c3cccc(C(F)(F)F)c3)ccn2)c1 [Example 93] | 10 to 31.6 | – |
| COc1cc(C(=O)Nc2ccc(N3CCCCC3)cc2-c2cc(C(=O)NCc3cccc(C(F)(F)F)c3)ccn2)cc(C(=O)N(C)CCN2CCOCC2)c1 [Example 11.4, 5-Methoxy-N1-methyl-N1-(2-morpholinoethyl)-N3-(4-(piperidin-1-yl)-2-(4-((3-(trifluoromethyl)benzyl)carbamoyl)pyridin-2-yl)phenyl)isophthalamide] | 10 to 31.6 | – |

| SMILES | IC50 [µM] | pIC50 range for rat Nap2b |
| --- | --- | --- |
| O=C(O)CCSCc1cccc(C(=O)Nc2ccc(N3CCCCC3)cc2-c2cc(C(=O)NCC3CCCCC3)ccn2)c1 [Example 1.7] | 1 to 7.94 | – |
| CCCN(CCC)c1ccc(NC(=O)c2cccc(C(=O)N(C)CCN3CCOCC3)c2)c(-c2cc(C(=O)NCc3cccc(C(F)(F)F)c3)ccn2)c1 [Example 116] | 1 to 7.94 | – |
| COCCNC(=O)[C@@H]1CCCN(C(=O)c2cccc(C(=O)Nc3ccc(N4CCCCC4)cc3-c3cc(C(=O)NCc4cccc(C(F)(F)F)c4)ccn3)c2)C1 [Example 4.15, (R)-2-(2-(3-(3-((2-Methoxyethyl)carbamoyl)piperidine-1-carbonyl)benzamido)-5-(piperidin-1-yl)phenyl)-N-(3-(trifluoromethyl)benzyl)isonicotinamide] | 1 to 7.94 | – |
| CC(=O)NC1CCN(C(=O)c2cccc(C(=O)Nc3ccc(N4CCCCC4)cc3-c3cc(C(=O)NCc4cccc(C(F)(F)F)c4)ccn3)c2)C1 (stereo in doubt) [Example 4.10, (S)-2-(2-(3-(3-Acetamidopyrrolidine-1-carbonyl)benzamido)-5-(piperidin-1-yl)phenyl)-N-(3-(trifluoromethyl)benzyl)isonicotinamide] | 10 to 31.6 | – |
| O=C(O)CCSCc1cccc(C(=O)Nc2ccc(N3CCCCC3)cc2-c2cc(C(=O)NCCc3cccc(C(F)(F)F)c3)ccn2)c1 [Example 1.5] | 1 to 7.94 | – |
| COCCOCCOCCOCCOCCOCCOCCN(C)C(=O)[C@@H]1CCCN1CCN(C)C(=O)c1cccc(C(=O)Nc2ccc(N3CCCCC3)cc2-c2cc(C(=O)N[C@H]3CCCc4ccccc43)ccn2)c1 [Example 198, N^1-(2-((S)-2-(2,5,8,11,14,17,20-heptaoxadocosan-22-yl(methyl)carbamoyl)pyrrolidin-1-yl)ethyl)-N^1-methyl-N^3-(4-(piperidin-1-yl)-2-(4-(((S)-1,2,3,4-tetrahydronaphthalen-1-yl)carbamoyl)pyridin-2-yl)phenyl)isophthalamide] | 10 to 31.6 | – |
| O=C(O)CCNC(=O)Cc1cccc(SCc2cccc(C(=O)Nc3ccc(N4CCCCC4)cc3-c3cc(C(=O)NCc4cccc(C(F)(F)F)c4)ccn3)c2)c1 [Example 140] | 1 to 7.94 | – |
| O=C(O)CCSCc1cccc(C(=O)Nc2ccc(N3CCCCC3)cc2-c2cc(C(=O)NCc3cccc(N4CCCCC4)c3)ccn2)c1 [Example 1.15] | 1 to 7.94 | – |
| CN(CCN1CCN(C(=O)OC(C)(C)C)CC1)Cc1cccc(C(=O)Nc2ccc(N3CCCCC3)cc2-c2cc(C(=O)NCc3cccc(C(F)(F)F)c3)ccn2)c1 [Example 38, Tert-butyl 4-(2-(methyl(3-((4-(piperidin-1-yl)-2-(4-((3-(trifluoromethyl)benzyl)-carbamoyl)pyridin-2-yl)phenyl)carbamoyl)benzyl)amino)ethyl)piperazine-1-carboxylate] | 10 to 31.6 | – |
| CC(C)(CCO)SCc1cccc(C(=O)Nc2ccc(N3CCCCC3)cc2-c2cc(C(=O)NCc3cccc(C(F)(F)F)c3)ccn2)c1 [Example 92] | 1 to 7.94 | – |
| O=C(O)CCSCc1cccc(C(=O)Nc2ccc(N3CCCCC3)cc2-c2cc(C(=O)NCc3cccc(C(F)(F)F)c3F)ccn2)c1 [Example 1.31] | 1 to 7.94 | – |
| COC[C@H]1CCCN1c1ccc(NC(=O)c2cccc(C(=O)N(C)CCN3CCOCC3)c2)c(-c2cc(C(=O)NCc3cccc(C(F)(F)F)c3)ccn2)c1 [Example 103] | 10 to 31.6 | – |
| CCN(CC)c1ccc(NC(=O)c2cccc(CCCOCCOCCOCCOCCNC(=O)c3ccc(O)cc3)c2)c(-c2cc(C(=O)N[C@H]3CCCc4ccccc43)ccn2)c1 [Example 325] | < 1 | – |
| CC(C)(Cc1cccc(SCc2cccc(C(=O)Nc3ccc(N4CCCCC4)cc3-c3cc(C(=O)NCc4cccc(C(F)(F)F)c4)ccn3)c2)c1)C(=O)O [Example 8.20] | 1 to 7.94 | – |
| CN(CCN1CCN(S(C)(=O)=O)CC1)C(=O)c1cccc(C(=O)Nc2ccc(N3CCCCC3)cc2-c2cc(C(=O)NCc3cccc(C(F)(F)F)c3)ccn2)c1 [Example 83, N1-methyl-N1-(2-(4-(methylsulfonyl)piperazin-1-yl)ethyl)-N3-(4-(piperidin-1-yl)-2-(4-(3-(trifluoromethyl)benzylcarbamoyl)pyridin-2-yl)phenyl)isophthalamide] | 1 to 7.94 | – |
| O=C(O)CCSCc1cccc(C(=O)Nc2ccc(N3CCCCC3)cc2-c2cc(C(=O)NCc3cccc(C(F)(F)F)c3)ncn2)c1 [Example 87] | 10 to 31.6 | – |

From patent US20140023611A1 (priority 2010, published 2014)
